What was measured:
Assay type in all cases: cell-based, human
CCRF-CEM = test: NCI60 antitumor screening; conditions: for inhibition at 10 µM: Homo sapiens, 10 μM single dose, CCRF-CEM (leukaemia), read-out: growth inhibition percent (GI%)
HL-60(TB) = test: NCI60 antitumor screening; conditions: for inhibition at 10 µM: Homo sapiens, 10 μM single dose, HL-60(TB) (leukaemia), read-out: growth inhibition percent (GI%)
RPMI-8226 = test: NCI60 antitumor screening; conditions: for inhibition at 10 µM: Homo sapiens, 10 μM single dose, RPMI-8226 (leukaemia), read-out: growth inhibition percent (GI%)
EKVX = test: NCI60 antitumor screening; conditions: for inhibition at 10 µM: Homo sapiens, 10 μM single dose, EKVX (non-small cell lung cancer), read-out: growth inhibition percent (GI%)
HOP-62 = test: NCI60 antitumor screening; conditions: for GI%: 10 μM one-dose; for inhibition at 10 µM: Homo sapiens, 10 μM single dose, HOP-62 (non-small cell lung cancer), read-out: growth inhibition percent (GI%)
NCI-H23 = test: NCI60 antitumor screening; conditions: for inhibition at 10 µM: Homo sapiens, 10 μM single dose, NCI-H23 (non-small cell lung cancer), read-out: growth inhibition percent (GI%)
NCI-H460 = test: NCI60 antitumor screening; conditions: for inhibition at 10 µM: Homo sapiens, 10 μM single dose, NCI-H460 (non-small cell lung cancer), read-out: growth inhibition percent (GI%)
NCI-H522 = test: NCI60 antitumor screening; conditions: for inhibition at 10 µM: Homo sapiens, 10 μM single dose, NCI-H522 (non-small cell lung cancer), read-out: growth inhibition percent (GI%)
COLO 205 = test: NCI60 antitumor screening; conditions: for inhibition at 10 µM: Homo sapiens, 10 μM single dose, COLO 205 (colon cancer), read-out: growth inhibition percent (GI%)
HCC-2998 = test: NCI60 antitumor screening; conditions: for inhibition at 10 µM: Homo sapiens, 10 μM single dose, HCC-2998 (colon cancer), read-out: growth inhibition percent (GI%)
HCT-116 = test: NCI60 antitumor screening; conditions: for inhibition at 10 µM: Homo sapiens, 10 μM single dose, HCT-116 (colon cancer), read-out: growth inhibition percent (GI%)
HT29 = test: NCI60 antitumor screening; conditions: for inhibition at 10 µM: Homo sapiens, HT-29, 10 μM single dose, HT29 (colon cancer), read-out: growth inhibition percent (GI%)
SNB-19 = test: NCI60 antitumor screening; conditions: for inhibition at 10 µM: Homo sapiens, 10 μM single dose, SNB-19 (CNS cancer), read-out: growth inhibition percent (GI%)
SNB-75 = test: NCI60 antitumor screening; conditions: for GI%: 10 μM one-dose, Table 1; for inhibition at 10 µM: Homo sapiens, 10 μM single dose, SNB-75 (CNS cancer), read-out: growth inhibition percent (GI%)
U251 = test: NCI60 antitumor screening; conditions: for inhibition at 10 µM: Homo sapiens, U-251, 10 μM single dose, U251 (CNS cancer), read-out: growth inhibition percent (GI%)
LOX IMVI = test: NCI60 antitumor screening; conditions: for inhibition at 10 µM: Homo sapiens, 10 μM single dose, LOX IMVI (melanoma), read-out: growth inhibition percent (GI%)
M14 = test: NCI60 antitumor screening; conditions: for inhibition at 10 µM: Homo sapiens, 10 μM single dose, M14 (melanoma), read-out: growth inhibition percent (GI%)
SK-MEL-28 = test: NCI60 antitumor screening; conditions: for inhibition at 10 µM: Homo sapiens, 10 μM single dose, SK-MEL-28 (melanoma), read-out: growth inhibition percent (GI%)
IGROV1 = test: NCI60 antitumor screening; conditions: for inhibition at 10 µM: Homo sapiens, IGROV-1, 10 μM single dose, IGROV1 (ovarian cancer), read-out: growth inhibition percent (GI%)
OVCAR-3 = test: NCI60 antitumor screening; conditions: for inhibition at 10 µM: Homo sapiens, 10 μM single dose, OVCAR-3 (ovarian cancer), read-out: growth inhibition percent (GI%)
NCI/ADR-RES = test: NCI60 antitumor screening; conditions: for inhibition at 10 µM: Homo sapiens, 10 μM single dose, NCI/ADR-RES (ovarian cancer), read-out: growth inhibition percent (GI%)
786–0 = test: NCI60 antitumor screening; conditions: for GI%: 10 μM one-dose; for inhibition at 10 µM: Homo sapiens, 10 μM single dose, 786–0 (renal cancer), read-out: growth inhibition percent (GI%)
A498 = test: NCI60 antitumor screening; conditions: for inhibition at 10 µM: Homo sapiens, 10 μM single dose, A498 (renal cancer), read-out: growth inhibition percent (GI%)
ACHN = test: NCI60 antitumor screening; conditions: for inhibition at 10 µM: Homo sapiens, 10 μM single dose, ACHN (renal cancer), read-out: growth inhibition percent (GI%)
RXF 393 = test: NCI60 antitumor screening; conditions: for GI%: 10 μM one-dose; for inhibition at 10 µM: Homo sapiens, 10 μM single dose, RXF 393 (renal cancer), read-out: growth inhibition percent (GI%)
SN12C = test: NCI60 antitumor screening; conditions: for inhibition at 10 µM: Homo sapiens, 10 μM single dose, SN12C (renal cancer), read-out: growth inhibition percent (GI%)
TK-10 = test: NCI60 antitumor screening; conditions: for inhibition at 10 µM: Homo sapiens, 10 μM single dose, TK-10 (renal cancer), read-out: growth inhibition percent (GI%)
UO-31 = test: NCI60 antitumor screening; conditions: for inhibition at 10 µM: Homo sapiens, 10 μM single dose, UO-31 (renal cancer), read-out: growth inhibition percent (GI%)
PC-3 = test: NCI60 antitumor screening; conditions: for inhibition at 10 µM: Homo sapiens, 10 μM single dose, PC-3 (prostate cancer), read-out: growth inhibition percent (GI%)
DU-145 = test: NCI60 antitumor screening; conditions: for inhibition at 10 µM: Homo sapiens, DU-145, read-out: growth inhibition percent (GI%)
BT-549 = test: NCI60 antitumor screening; conditions: for inhibition at 10 µM: Homo sapiens, 10 μM single dose, BT-549 (breast cancer), read-out: growth inhibition percent (GI%)
T-47D = test: NCI60 antitumor screening; conditions: for inhibition at 10 µM: Homo sapiens, T47D, 10 μM single dose, T-47D (breast cancer), read-out: growth inhibition percent (GI%)
NCI60 cell lines panel = test: NCI60 antitumor screening, full panel; conditions: for inhibition at 10 µM: Homo sapiens, 10 μM single dose, mean over NCI60 cell lines, read-out: Mean growth inhibition percent (GI%)
Procedure, shortened: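 Percent growth inhibition (GI%) was recorded for each of the NCI60 lines, spanning leukaemia, lung, colon, CNS, melanoma, ovarian, renal, prostate and breast cancers, after exposure to compounds at one concentration, 10 μM.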

SMILES: Cc1ccc(CSc2nc(-c3ccc(F)cc3)c(C#N)c(N3CCOCC3)n2)cc1 [4d, 4-(4-Fluorophenyl)-2-((4-methylbenzyl)thio)-6-morpholinopyrimidine-5-carbonitrile]
- GI% (CCRF-CEM; 10 μM one-dose): — (GI% < 10)
- GI% (HL-60(TB); 10 μM one-dose): — (GI% < 10)
- GI% (RPMI-8226; 10 μM one-dose): — (GI% < 10)
- GI% (EKVX; 10 μM one-dose): 13.10%
- GI% (HOP-62): 36.77%
- GI% (HOP-62; Table 1): — (GI value > 70%)
- GI% (NCI-H23; 10 μM one-dose): — (GI% < 10)
- GI% (NCI-H460; 10 μM one-dose): — (GI% < 10)
- GI% (NCI-H522; 10 μM one-dose): 44.57%
- GI% (COLO 205; 10 μM one-dose): — (GI% < 10)
- GI% (HCC-2998; 10 μM one-dose): — (GI% < 10)
- GI% (HCT-116; 10 μM one-dose): 19.81%
- GI% (HT29; 10 μM one-dose): — (GI% < 10)
- GI% (SNB-19; 10 μM one-dose): 44.48%
- GI% (SNB-75): 88.04%
- GI% (U251; 10 μM one-dose): 13.13%
- GI% (LOX IMVI; 10 μM one-dose): 11.10%
- GI% (M14; 10 μM one-dose): — (GI% < 10)
- GI% (SK-MEL-28; 10 μM one-dose): — (GI% < 10)
- GI% (IGROV1; 10 μM one-dose): — (GI% < 10)
- GI% (OVCAR-3; 10 μM one-dose): — (GI% < 10)
- GI% (NCI/ADR-RES; 10 μM one-dose): — (GI% < 10)
- GI% (786–0): 55.92%
- GI% (786–0; Table 1): — (GI value > 70%)
- GI% (A498; 10 μM one-dose): — (GI% < 10)
- GI% (ACHN; 10 μM one-dose): 37.30%
- GI% (RXF 393): 48.96%
- GI% (RXF 393; Table 1): — (GI value > 70%)
- GI% (SN12C; 10 μM one-dose): — (GI% < 10)
- GI% (TK-10; 10 μM one-dose): — (GI% < 10)
- GI% (UO-31; 10 μM one-dose): 10.06%
- GI% (PC-3; 10 μM one-dose): — (GI% < 10)
- GI% (DU-145; 10 μM one-dose): — (GI% < 10)
- GI% (BT-549; 10 μM one-dose): 11.94%
- GI% (T-47D; 10 μM one-dose): 12.46%
- Mean GI% (NCI60 cell lines panel; 10 μM one-dose, mean over NCI60): 14.01%

SMILES: CN1CCN(c2nc(SCc3ccccc3)nc(-c3ccc(F)cc3)c2C#N)CC1 [4i, 2-(Benzylthio)-4-(4-fluorophenyl)-6-(4-methylpiperazin-1-yl) pyrimidine-5-carbonitrile]
- inhibition at 10 µM (CCRF-CEM): 37.9%
- inhibition at 10 µM (HL-60(TB)): 36.5%
- inhibition at 10 µM (RPMI-8226): 56.4%
- inhibition at 10 µM (EKVX): 20.2%
- GI% (HOP-62; Table 1): — (GI value > 70%)
- inhibition at 10 µM (HOP-62): 10.3%
- inhibition at 10 µM (NCI-H23): < 10%
- inhibition at 10 µM (NCI-H460): 35.1%
- inhibition at 10 µM (NCI-H522): 31.7%
- inhibition at 10 µM (COLO 205): 13.6%
- inhibition at 10 µM (HCC-2998): < 10%
- inhibition at 10 µM (HCT-116): 45.8%
- inhibition at 10 µM (HT29): 67%
- inhibition at 10 µM (SNB-19): 10%
- GI% (SNB-75): — (GI value > 70%)
- inhibition at 10 µM (SNB-75): 41%
- inhibition at 10 µM (U251): < 10%
- inhibition at 10 µM (LOX IMVI): 25.4%
- inhibition at 10 µM (M14): 18.1%
- inhibition at 10 µM (SK-MEL-28): < 10%
- inhibition at 10 µM (IGROV1): < 10%
- inhibition at 10 µM (OVCAR-3): 14.4%
- inhibition at 10 µM (NCI/ADR-RES): < 10%
- GI% (786–0; Table 1): — (GI value > 70%)
- inhibition at 10 µM (786–0): 29.3%
- inhibition at 10 µM (A498): 12.5%
- inhibition at 10 µM (ACHN): 14.8%
- GI% (RXF 393; Table 1): — (GI value > 70%)
- inhibition at 10 µM (RXF 393): 49.7%
- inhibition at 10 µM (SN12C): 12.6%
- inhibition at 10 µM (TK-10): < 10%
- inhibition at 10 µM (UO-31): 36%
- inhibition at 10 µM (PC-3): 31.9%
- inhibition at 10 µM (DU-145): < 10%
- inhibition at 10 µM (BT-549): < 10%
- inhibition at 10 µM (T-47D): 42.5%
- inhibition at 10 µM (NCI60 cell lines panel): 24.3%

SMILES: N#Cc1c(-c2ccc(F)cc2)nc(SCc2ccc([N+](=O)[O-])cc2)nc1N1CCNCC1 [4g, 4-(4-Fluorophenyl)-2-((4-nitrobenzyl)thio)-6-(piperazin-1-yl) pyrimidine-5-carbonitrile]
- inhibition at 10 µM (CCRF-CEM): < 10%
- inhibition at 10 µM (HL-60(TB)): < 10%
- inhibition at 10 µM (RPMI-8226): < 10%
- inhibition at 10 µM (EKVX): < 10%
- inhibition at 10 µM (HOP-62): < 10%
- inhibition at 10 µM (NCI-H23): < 10%
- inhibition at 10 µM (NCI-H460): < 10%
- inhibition at 10 µM (NCI-H522): < 10%
- inhibition at 10 µM (COLO 205): < 10%
- inhibition at 10 µM (HCC-2998): < 10%
- inhibition at 10 µM (HCT-116): < 10%
- inhibition at 10 µM (HT29): < 10%
- inhibition at 10 µM (SNB-19): < 10%
- inhibition at 10 µM (SNB-75): 15.9%
- inhibition at 10 µM (U251): < 10%
- inhibition at 10 µM (LOX IMVI): < 10%
- inhibition at 10 µM (M14): < 10%
- inhibition at 10 µM (SK-MEL-28): < 10%
- inhibition at 10 µM (IGROV1): < 10%
- inhibition at 10 µM (OVCAR-3): < 10%
- inhibition at 10 µM (NCI/ADR-RES): < 10%
- inhibition at 10 µM (786–0): < 10%
- inhibition at 10 µM (A498): < 10%
- inhibition at 10 µM (ACHN): < 10%
- inhibition at 10 µM (RXF 393): 15.2%
- inhibition at 10 µM (SN12C): < 10%
- inhibition at 10 µM (TK-10): < 10%
- inhibition at 10 µM (UO-31): 11.9%
- inhibition at 10 µM (PC-3): < 10%
- inhibition at 10 µM (DU-145): < 10%
- inhibition at 10 µM (BT-549): < 10%
- inhibition at 10 µM (T-47D): < 10%
- One-dose activity over the NCI60 panel (NCI60 cell lines panel; 10 μM): inactive
- inhibition at 10 µM (NCI60 cell lines panel): < 10%

Reference: publication PMC10620772, “Design, synthesis, and biological evaluation of new pyrimidine-5-carbonitrile derivatives as novel anti-cancer, dual EGFR^WT/COX-2 inhibitors with docking studies” (RSC Advances, 2023)
